# Read-outs that look alike come from different tables or passages of the source.
# Tests used:
# vesamicol receptor = assay: Blocking experiments: inhibition of radiotracer accumulation in the rat by coadministered compound; format: in vivo, rat (male Wistar); conditions: rat; for Brain: Blood Ratio / Heart: Blood Ratio / radioactivity in blood / radioactivity in brain / radioactivity in heart / radioactivity in kidney / radioactivity in liver / radioactivity in lung / radioactivity in muscle / radioactivity in spleen: iv, 60 min
# Protocol: (§1) *Animals in group 1 received an iv injection of (+)4-[^125 l]HIPP
# (§2) only. For groups 2, 3, and 4, the radiotracer was coadministered with the
# (§3) hydrochlorides of (+)7 (0.53 mg/kg), (-)7 (0.53 mg/kg) and vesamicol (0.3
# (§4) Four groups of male Wistar rats (n=3) were used in these experiments. All animals received an iv dose of 8-10 μCi of the radiotracer in 0.1 ml of 50% aq. ethanol. Additionally, in groups 2, 3 and 4, the radiotracer was coadministered with (+)-HBrPP.HCl(1.3 μmol/kg), (-)-HBrPP.HCl(1.3 μmol/kg) and (dl)-vesamicol hydrochloride (1.1 μmol/kg), respectively. At 60 min. post-injection, blood was collected by cardiac puncture and the animals sacrificed as described above. The data was analyzed as outlined above.
# (§5) NOTE: The dose of radiotracer injected was 5-7 mCi. Group I was the
# (§6) control, injected with the radiotracer only. Group II included the
# (§7) simultaneous injection of "cold"(dl)3-HIPP (HCl) (0.53 mg/kg). Group III
# (§8) included the simultaneous injection of (dl) vesamicol (HCl) (0.31 mg/kg).
# (§9) All rats were sacrificed at one hour postinjection.
# (§10) NOTE: Group I was the control, injected with the radiotracer only. Group
# (§11) II included the simultaneous injection of "cold"(dl)3-HIPP (HCl) (0.53
# (§12) mg/kg). Group III included the simultaneous injection of (dl) vesamicol
# (§13) hydrochloride (0.31 mg/kg). The dose of radiotracer was 8-9 μCi. All
# (§14) rats were sacrificed at one hour postinjection.
# (§15) NOTE: Group I received (+)[^125 l]13 only. Group II received the (+)
# (§16) radiotracer coinjected with 0.31 mg/kg (dl)vesamicol hydrochloride. Group
# (§17) III received (-)[^125 l]13 only. Group IV received the (-) radiotrace
# (§18) coinjected with 0.31 mg/kg (dl)vesamicol hydrochloride. All animals were
# (§19) sacrificed at one hour postinjection. The dose of radiotracer injected pe
# [1] = Tissue distribution (biodistribution) of radioiodinated compound in the rat; conditions: rat; for Brain: Blood Ratio / Heart: Blood Ratio / radioactivity in blood / radioactivity in brain / radioactivity in heart / radioactivity in kidney / radioactivity in liver / radioactivity in lung / radioactivity in muscle / radioactivity in spleen: iv
# [2] = Blocking experiments: inhibition of radiotracer accumulation in the rat by coadministered compound; format: in vivo, rat (male Wistar); conditions: rat, iv, rat, iv, 60 min
# Protocol: as §1, §2, §3, §4, §5, §6, §7, §8, §9, §10, §11, §12, §13, §14, §15, §16, §17, §18, §19
# [3] = + (dl)-vesamicol HCl 0.3 (Table 3) or 0.31 mg/kg
# [4] = + cold (dl)3-HIPP HCl 0.53 mg/kg
smiles,measurement,setting,value
"OC(Cc1cccc([125I])c1)CN1CCC(c2ccccc2)CC1 (single isomer, unassigned; (-)) [(-)-[^125 l]12] [2-Hydroxyl-3-(3-iodophenyl)-1-[1-(4-phenylpiperidinyl)]propane]",effect of coadministered vesamicol on accumulation (in words),vesamicol receptor,inhibited
same,Brain: Blood Ratio,vesamicol receptor; [3],1.40
same,Heart: Blood Ratio,vesamicol receptor; [3],0.95
same,radioactivity in blood,vesamicol receptor; [3],0.14 % dose/g of tissue
same,radioactivity in brain,vesamicol receptor; [3],0.20 % dose/g of tissue
same,radioactivity in heart,vesamicol receptor; [3],0.14 % dose/g of tissue
same,radioactivity in kidney,vesamicol receptor; [3],0.46 % dose/g of tissue
same,radioactivity in liver,vesamicol receptor; [3],0.81 % dose/g of tissue
same,radioactivity in lung,vesamicol receptor; [3],0.73 % dose/g of tissue
same,radioactivity in muscle,vesamicol receptor; [3],0.13 % dose/g of tissue
same,radioactivity in spleen,vesamicol receptor; [3],0.50 % dose/g of tissue
same,radioactivity in blood,vesamicol receptor; [4],0.13 % dose/g of tissue
same,Brain: Blood Ratio,vesamicol receptor; [4],1.19
same,Heart: Blood Ratio,vesamicol receptor; [4],0.87
same,radioactivity in brain,vesamicol receptor; [4],0.15 % dose/g of tissue
same,radioactivity in heart,vesamicol receptor; [4],0.11 % dose/g of tissue
same,radioactivity in kidney,vesamicol receptor; [4],0.46 % dose/g of tissue
same,radioactivity in liver,vesamicol receptor; [4],0.63 % dose/g of tissue
same,radioactivity in lung,vesamicol receptor; [4],0.57 % dose/g of tissue
same,radioactivity in muscle,vesamicol receptor; [4],0.10 % dose/g of tissue
same,radioactivity in spleen,vesamicol receptor; [4],0.36 % dose/g of tissue
same,Brain: Blood Ratio,vesamicol receptor; radiotracer only (control),5.08
same,Heart: Blood Ratio,vesamicol receptor; radiotracer only (control),1.57
same,radioactivity in blood,vesamicol receptor; radiotracer only (control),0.13 % dose/g of tissue
same,radioactivity in brain,vesamicol receptor; radiotracer only (control),0.64 % dose/g of tissue
same,radioactivity in heart,vesamicol receptor; radiotracer only (control),0.20 % dose/g of tissue
same,radioactivity in kidney,vesamicol receptor; radiotracer only (control),0.98 % dose/g of tissue
same,radioactivity in liver,vesamicol receptor; radiotracer only (control),0.86 % dose/g of tissue
same,radioactivity in lung,vesamicol receptor; radiotracer only (control),0.92 % dose/g of tissue
same,radioactivity in muscle,vesamicol receptor; radiotracer only (control),0.15 % dose/g of tissue
same,radioactivity in spleen,vesamicol receptor; radiotracer only (control),0.83 % dose/g of tissue
same,decrease of concentration in the brain,"[1]; 1 hour post-injection vs initial, listed as (-)-[^125 I]12",43%
same,decrease of concentration in the brain,"[1]; 3 hours post-injection vs initial, listed as (-)-[^125 I]12",74%
same,initial accumulation in the rat brain,"[1]; initial, listed as (-)-[^125 I]12",1.86 % of the injected dose
same,Brain: Blood Ratio,[1]; 5 min,9.0
same,Heart: Blood Ratio,[1]; 5 min,11.4
same,radioactivity in blood,[1]; 5 min,0.11 % dose/g
same,radioactivity in brain,[1]; 5 min,0.98 % dose/g
same,radioactivity in heart,[1]; 5 min,1.26 % dose/g
same,radioactivity in kidney,[1]; 5 min,2.46 % dose/g
same,radioactivity in liver,[1]; 5 min,1.41 % dose/g
same,radioactivity in lung,[1]; 5 min,8.94 % dose/g
same,radioactivity in muscle,[1]; 5 min,0.36 % dose/g
same,radioactivity in spleen,[1]; 5 min,0.66 % dose/g
same,Brain: Blood Ratio,[1]; 60 min,5.1
same,Heart: Blood Ratio,[1]; 60 min,1.9
same,radioactivity in blood,[1]; 60 min,0.11 % dose/g
same,radioactivity in brain,[1]; 60 min,0.56 % dose/g
same,radioactivity in heart,[1]; 60 min,0.21 % dose/g
same,radioactivity in kidney,[1]; 60 min,1.00 % dose/g
same,radioactivity in liver,[1]; 60 min,1.04 % dose/g
same,radioactivity in lung,[1]; 60 min,1.04 % dose/g
same,radioactivity in muscle,[1]; 60 min,0.14 % dose/g
same,radioactivity in spleen,[1]; 60 min,0.95 % dose/g
same,Brain: Blood Ratio,[1]; 180 min,2.6
same,Heart: Blood Ratio,[1]; 180 min,0.9
same,radioactivity in blood,[1]; 180 min,0.11 % dose/g
same,radioactivity in brain,[1]; 180 min,0.27 % dose/g
same,radioactivity in heart,[1]; 180 min,0.10 % dose/g
same,radioactivity in kidney,[1]; 180 min,0.59 % dose/g
same,radioactivity in liver,[1]; 180 min,0.79 % dose/g
same,radioactivity in lung,[1]; 180 min,0.46 % dose/g
same,radioactivity in muscle,[1]; 180 min,0.08 % dose/g
same,radioactivity in spleen,[1]; 180 min,0.44 % dose/g
"OC(Cc1ccc([125I])cc1)CN1CCC(c2ccccc2)CC1 (single isomer, unassigned; (-)) [(-)-4-[^125 l]HIPP, 2-Hydroxy-3-(4-iodophenyl)-1-(4-phenylpiperidyl)propane]",tissue uptake at 1 h,"[2]; blood, + (+)-7 HCl 0.53 mg/kg, read-out: radioactivity in blood",0.05 %ID/g
same,tissue uptake at 1 h,"[2]; blood, + (-)-7 HCl 0.53 mg/kg, read-out: radioactivity in blood",0.04 %ID/g
same,tissue uptake at 1 h,"[2]; blood, + (dl)-vesamicol HCl 0.3 (Table 3) or 0.31 mg/kg, read-out: radioactivity in blood",0.02 %ID/g
same,tissue uptake at 1 h,"[2]; blood, radiotracer only (control), read-out: radioactivity in blood",0.02 %ID/g
same,tissue uptake at 1 h,"[2]; brain, + (+)-7 HCl 0.53 mg/kg, read-out: radioactivity in brain",0.28 %ID/g
same,tissue uptake at 1 h,"[2]; brain, + (-)-7 HCl 0.53 mg/kg, read-out: radioactivity in brain",0.29 %ID/g
same,tissue uptake at 1 h,"[2]; brain, + (dl)-vesamicol HCl 0.3 (Table 3) or 0.31 mg/kg, read-out: radioactivity in brain",0.31 %ID/g
same,tissue uptake at 1 h,"[2]; brain, radiotracer only (control), read-out: radioactivity in brain",0.93 %ID/g
same,tissue uptake at 1 h,"[2]; heart, + (+)-7 HCl 0.53 mg/kg, read-out: radioactivity in heart",0.12 %ID/g
same,tissue uptake at 1 h,"[2]; heart, + (-)-7 HCl 0.53 mg/kg, read-out: radioactivity in heart",0.13 %ID/g
same,tissue uptake at 1 h,"[2]; heart, + (dl)-vesamicol HCl 0.3 (Table 3) or 0.31 mg/kg, read-out: radioactivity in heart",0.13 %ID/g
same,tissue uptake at 1 h,"[2]; heart, radiotracer only (control), read-out: radioactivity in heart",0.79 %ID/g
same,tissue uptake at 1 h,"[2]; kidney, + (+)-7 HCl 0.53 mg/kg, read-out: radioactivity in kidney",0.46 %ID/g
same,tissue uptake at 1 h,"[2]; kidney, + (-)-7 HCl 0.53 mg/kg, read-out: radioactivity in kidney",0.42 %ID/g
same,tissue uptake at 1 h,"[2]; kidney, + (dl)-vesamicol HCl 0.3 (Table 3) or 0.31 mg/kg, read-out: radioactivity in kidney",0.35 %ID/g
same,tissue uptake at 1 h,"[2]; kidney, radiotracer only (control), read-out: radioactivity in kidney",1.9 %ID/g
same,tissue uptake at 1 h,"[2]; liver, + (dl)-vesamicol HCl 0.3 (Table 3) or 0.31 mg/kg, read-out: radioactivity in liver",4.18 %ID/g
same,tissue uptake at 1 h,"[2]; liver, radiotracer only (control), read-out: radioactivity in liver",2.68 %ID/g
same,tissue uptake at 1 h,"[2]; lung, + (+)-7 HCl 0.53 mg/kg, read-out: radioactivity in lung",1.64 %ID/g
same,tissue uptake at 1 h,"[2]; lung, + (-)-7 HCl 0.53 mg/kg, read-out: radioactivity in lung",1.04 %ID/g
same,tissue uptake at 1 h,"[2]; lung, + (dl)-vesamicol HCl 0.3 (Table 3) or 0.31 mg/kg, read-out: radioactivity in lung",0.95 %ID/g
same,tissue uptake at 1 h,"[2]; lung, radiotracer only (control), read-out: radioactivity in lung",3.63 %ID/g
same,tissue uptake at 1 h,"[2]; muscle, + (+)-7 HCl 0.53 mg/kg, read-out: radioactivity in muscle",0.07 %ID/g
same,tissue uptake at 1 h,"[2]; muscle, + (-)-7 HCl 0.53 mg/kg, read-out: radioactivity in muscle",0.08 %ID/g
same,tissue uptake at 1 h,"[2]; muscle, + (dl)-vesamicol HCl 0.3 (Table 3) or 0.31 mg/kg, read-out: radioactivity in muscle",0.06 %ID/g
same,tissue uptake at 1 h,"[2]; muscle, radiotracer only (control), read-out: radioactivity in muscle",0.21 %ID/g
same,tissue uptake at 1 h,"[2]; spleen, + (+)-7 HCl 0.53 mg/kg, read-out: radioactivity in spleen",0.57 %ID/g
same,tissue uptake at 1 h,"[2]; spleen, + (-)-7 HCl 0.53 mg/kg, read-out: radioactivity in spleen",0.57 %ID/g
same,tissue uptake at 1 h,"[2]; spleen, + (dl)-vesamicol HCl 0.3 (Table 3) or 0.31 mg/kg, read-out: radioactivity in spleen",0.6 %ID/g
same,tissue uptake at 1 h,"[2]; spleen, radiotracer only (control), read-out: radioactivity in spleen",1.42 %ID/g

# From US5358712A, “Radiopharmaceutical agents for the detection of Alzheimer's disease” (Regents of the University of Minnesota, priority 1993, dated 1994)
